Source: publication PMC7887271, “Fast acting allosteric phosphofructokinase inhibitors block trypanosome glycolysis and cure acute African trypanosomiasis in mice” (Nature Communications, 2021)
Values joined by “and” are separate entries in the source; they are usually repeats but may differ in a detail not shown here. Equal entries are not always repeated.

System: T. b. brucei GVR35-Luc2
Experiment: T. b. brucei GVR35-Luc2 time-to-kill assay (luciferin)
Assay type: cell-based
Conditions: for Luminescence (medium-subtracted), Average: average of replicates; for % Cell viability, individual replicates / % Inhibition, individual replicates / Luminescence (medium-subtracted), individual replicates: replicate wells; for Luminescence, Average / Luminescence, individual replicates: Time to kill assay for GVR35 cells
Procedure: Enzyme activity was measured using an aldolase/TIM linked assay at 25 °C. […] Experiments were carried out in duplicate. Data are presented as mean values ± standard deviation. […] Source data are provided as a Source Data File. b Kill time of CTCB-405 compared with existing HAT drugs in the clinic. […] Over 99% of trypanosomes were killed in under 30 min compared with much slower killing rates for the other drugs. The points on the graph for CTCB-405 were determined from two independent biological replicate experiments with each time point measured twice (using duplicate technical replicates). The ESD for each point on the graph is between 0.7 and 1.4%. For drugs in clinical use each point on the graph is the average of two technical replicates from one experiment (with a maximum difference of 7.8% for any of the points). Source data are provided as a Source Data File.
As predicted from the biology of the BSF that relies wholly on glycolysis for ATP production, inhibition of the pathway results in a very fast TTK. Two experimental methods were used to measure ATP levels as a real-time indicator of viability. For Tb427 parasites, a Cell Titre Glo kit was used and for the TbGVR35 bioluminescent strain, killing was assessed by adding luciferin which requires ATP to produce a luminescent signal (Supplementary Methods 4.3 and 4.4). […] The BSF of T. brucei cannot produce ATP by oxidative phosphorylation and is solely dependent on flux through the glycolytic pathway. The clear correlation between inhibitor dose and reduction in ATP production, as observed in the TTK assays strongly supports the proposed mode of action of the CTCB compounds is by blocking glycolysis. It is a long-established experimental observation that withdrawal of glucose nutrient leads to rapid loss of motility and cell death. It has recently been shown that the BSF of T. brucei can proliferate on high levels of glycerol; however, we have shown that addition of glycerol to the medium has little effect on parasite killing by the CTCB compounds (Supplementary Table 3).
The killing of T. b. brucei GVR35-Luc2 was assessed by adding D-luciferin to live cells resulting in the production of light in the presence of ATP and luciferase activity. Compounds of interest were serially diluted from 16 µM to 0.5 µM in Modified HMI-9 medium and added into sterile white, flat bottom 96-well plate (Greiner Inc.). 32,000 trypanosomes were added to each well. The plates were incubated at 37 °C and 5% CO2. At the end of each incubation, 200 µg/ml of D-luciferin was added to each well and incubated for 10 min. Luminescence was measured using a BMG plate reader and percentage cell viability versus incubation time was determined.

[1] = 0.5 h, mean, suramin, fexinidazole, SCYX-7158 11 µM, CTCB-405 4 µM
[2] = 1 h, mean, suramin, fexinidazole, SCYX-7158 11 µM, CTCB-405 4 µM
[3] = 8 h, mean, suramin, fexinidazole, SCYX-7158 11 µM, CTCB-405 4 µM
[4] = GVR35 TTK, 24 h incubation, average
[5] = GVR35 TTK, 24 h incubation, from average
[6] = 6 h, mean, suramin, fexinidazole, SCYX-7158 11 µM, CTCB-405 4 µM
[7] = GVR35 TTK, 24 h sheet, summary line marked "4"

CSc1ccc(OCc2ncc([N+](=O)[O-])n2C)cc1 [Fexinidazole, fexinidazole]
TTK (time-to-kill) value: > 20 h | % Cell viability, single replicates (0.5 h): 54% and 59% | % Inhibition, single replicates (0.5 h): 46% and 41% | % Cell viability (0.5 h, average): 57% | % Inhibition [1]: 43% | % Cell viability, single replicates (1 h): 46% and 57% | % Inhibition, single replicates (1 h): 54% | % Cell viability (1 h, average): 52% | % Inhibition [2]: 48% | % Cell viability, single replicates (2 h): 61% | % Inhibition, single replicates (2 h): 39% | % Cell viability (2 h, average): 57% | % Cell viability, single replicates (4 h): 58% and 63% | % Inhibition, single replicates (4 h): 42% and 37% | % Cell viability (4 h, average): 61% | % Cell viability, single replicates (6 h): 62% and 60% | % Inhibition, single replicates (6 h): 38% and 40% | % Cell viability (6 h, average): 61% | % Cell viability, single replicates (8 h): 55% | % Inhibition, single replicates (8 h): 45% | % Cell viability (8 h, average): 55% | % Inhibition [3]: 45% | % Cell viability, Average [4]: 18% | Luminescence (medium-subtracted), Average (GVR35 TTK, 24 h incubation): 18856.5 | % Inhibition [5]: 83% | % Cell viability, individual replicates (GVR35 TTK, 24 h incubation): 16% and 19% | % Inhibition, individual replicates (GVR35 TTK, 24 h incubation): 84% and 81% | Luminescence (medium-subtracted), individual replicates (GVR35 TTK, 24 h incubation): 18923.5 and 18789.5 | Luminescence, Average (0.5 hour incubation): 5213 | Luminescence, individual replicates (0.5 hour incubation): 5083 and 5343 | Luminescence, Average (1hour incubation): 6274 | Luminescence, individual replicates (1hour incubation): 5678 and 6870 | Luminescence, Average (2hour incubation): 8146 | Luminescence, individual replicates (2hour incubation): 8389 and 7903 | Luminescence, Average (4hour incubation): 11135 | Luminescence, individual replicates (4hour incubation): 10890 and 11380 | Luminescence, Average (6hour incubation): 20713 | Luminescence, individual replicates (6hour incubation): 21007 and 20418 | Luminescence, Average (8hour incubation): 17103 | Luminescence, individual replicates (8hour incubation): 17279 and 16927 | Luminescence, Average (24hour incubation): 18857 | Luminescence, individual replicates (24hour incubation): 18924 and 18790

CC1(C)OB(O)c2cc(NC(=O)c3ccc(F)cc3C(F)(F)F)ccc21 [SCYX-7158]
% Cell viability, single replicates (0.5 h): 82% and 93% | % Inhibition, single replicates (0.5 h): 18% and 6.51% | % Cell viability (0.5 h, average): 88% | % Inhibition [1]: 12% | % Cell viability, single replicates (1 h): 78% | % Inhibition, single replicates (1 h): 22% | % Cell viability (1 h, average): 80% | % Inhibition [2]: 20% | % Cell viability, single replicates (2 h): 84% and 77% | % Inhibition, single replicates (2 h): 16% and 23% | % Cell viability (2 h, average): 80% | % Cell viability, single replicates (4 h): 53% and 55% | % Inhibition, single replicates (4 h): 47% and 45% | % Cell viability (4 h, average): 54% | % Inhibition (4 h, mean, suramin, fexinidazole, SCYX-7158 11 µM, CTCB-405 4 µM): 46% | % Cell viability, single replicates (6 h): 30% and 31% | % Inhibition, single replicates (6 h): 70% and 69% | % Cell viability (6 h, average): 31% | % Inhibition [6]: 69% | % Cell viability, single replicates (8 h): 16% and 15% | % Inhibition, single replicates (8 h): 84% and 85% | % Cell viability (8 h, average): 16% | % Inhibition [3]: 84% | % Cell viability, Average [4]: -0.0868% | Luminescence (medium-subtracted), Average (GVR35 TTK, 24 h incubation): 8.5 | % Inhibition [5]: 100% | % Cell viability, individual replicates (GVR35 TTK, 24 h incubation): -0.0698% and -0.104% | % Inhibition, individual replicates (GVR35 TTK, 24 h incubation): 100% | Luminescence (medium-subtracted), individual replicates (GVR35 TTK, 24 h incubation): 16.5 and 0.5 | % Cell viability [7]: -0.085% | Luminescence, Average (0.5 hour incubation): 8054 | Luminescence, individual replicates (0.5 hour incubation): 7697 and 8411 | Luminescence, Average (1hour incubation): 9657 | Luminescence, individual replicates (1hour incubation): 9531 and 9783 | Luminescence, Average (2hour incubation): 11337 | Luminescence, individual replicates (2hour incubation): 11424 and 11249 | Luminescence, Average (4hour incubation): 9915 | Luminescence, individual replicates (4hour incubation): 9827 and 10004 | Luminescence, Average (6hour incubation): 10493 | Luminescence, individual replicates (6hour incubation): 10240 and 10745 | Luminescence, Average (8hour incubation): 4975 | Luminescence, individual replicates (8hour incubation): 5108 and 4842 | Luminescence, Average (24hour incubation): 8.5 | Luminescence, individual replicates (24hour incubation): 17 and 0.5

Cc1ccc(C(=O)Nc2ccc(S(=O)(=O)O)c3cc(S(=O)(=O)O)cc(S(=O)(=O)O)c23)cc1NC(=O)c1cccc(NC(=O)Nc2cccc(C(=O)Nc3cc(C(=O)Nc4ccc(S(=O)(=O)O)c5cc(S(=O)(=O)O)cc(S(=O)(=O)O)c45)ccc3C)c2)c1 [Suramin, suramin]
TTK (time-to-kill) value: > 20 h | % Cell viability, single replicates (0.5 h): 91% and 97% | % Inhibition, single replicates (0.5 h): 9% and 2.59% | % Cell viability (0.5 h, average): 94% | % Inhibition [1]: 6% | % Cell viability, single replicates (1 h): 87% and 92% | % Inhibition, single replicates (1 h): 13% and 7.55% | % Cell viability (1 h, average): 90% | % Inhibition [2]: 10% | % Cell viability, single replicates (2 h): 95% and 89% | % Inhibition, single replicates (2 h): 4.69% and 11% | % Cell viability (2 h, average): 92% | % Inhibition (2 h, mean, suramin, fexinidazole, SCYX-7158 11 µM, CTCB-405 4 µM): 8% | % Cell viability, single replicates (4 h): 86% | % Inhibition, single replicates (4 h): 14% and 8.56% | % Cell viability (4 h, average): 89% | % Cell viability, single replicates (6 h): 80% and 82% | % Inhibition, single replicates (6 h): 20% and 18% | % Cell viability (6 h, average): 81% | % Inhibition [6]: 19% | % Cell viability, single replicates (8 h): 62% and 63% | % Inhibition, single replicates (8 h): 38% and 37% | % Cell viability (8 h, average): 62% | % Inhibition [3]: 38% | % Cell viability, Average [4]: 1.08% | Luminescence (medium-subtracted), Average (GVR35 TTK, 24 h incubation): 1271 | % Inhibition [5]: 99% | % Cell viability, individual replicates (GVR35 TTK, 24 h incubation): 1.06% and 1.11% | % Inhibition, individual replicates (GVR35 TTK, 24 h incubation): 99% | Luminescence (medium-subtracted), individual replicates (GVR35 TTK, 24 h incubation): 1370.5 and 1171.5 | % Cell viability [7]: 1.08% | Luminescence, Average (0.5 hour incubation): 8640 | Luminescence, individual replicates (0.5 hour incubation): 8520 and 8761 | Luminescence, Average (1hour incubation): 10793 | Luminescence, individual replicates (1hour incubation): 10604 and 10981 | Luminescence, Average (2hour incubation): 13042 | Luminescence, individual replicates (2hour incubation): 13027 and 13057 | Luminescence, Average (4hour incubation): 16276 | Luminescence, individual replicates (4hour incubation): 16058 and 16495 | Luminescence, Average (6hour incubation): 27456 | Luminescence, individual replicates (6hour incubation): 27109 and 27803 | Luminescence, Average (8hour incubation): 19408 | Luminescence, individual replicates (8hour incubation): 19222 and 19594 | Luminescence, Average (24hour incubation): 1271 | Luminescence, individual replicates (24hour incubation): 1371 and 1172
